In paper PMC10539361, “Allosteric modulation of the fish taste receptor type 1 (T1R) family by the extracellular chloride ion” (Scientific Reports, 2023):

Legend:
[1] = target: T1, mfT1R2a/mfT1R3 (Oryzias latipes, UniProt Q2MHK2+Q2MHK5); test: Ca2+ mobilization dose-response assay, stable cells expressing mfT1R2a/mfT1R3 with G16gust44
T1 sequence (Q2MHK5 20-819): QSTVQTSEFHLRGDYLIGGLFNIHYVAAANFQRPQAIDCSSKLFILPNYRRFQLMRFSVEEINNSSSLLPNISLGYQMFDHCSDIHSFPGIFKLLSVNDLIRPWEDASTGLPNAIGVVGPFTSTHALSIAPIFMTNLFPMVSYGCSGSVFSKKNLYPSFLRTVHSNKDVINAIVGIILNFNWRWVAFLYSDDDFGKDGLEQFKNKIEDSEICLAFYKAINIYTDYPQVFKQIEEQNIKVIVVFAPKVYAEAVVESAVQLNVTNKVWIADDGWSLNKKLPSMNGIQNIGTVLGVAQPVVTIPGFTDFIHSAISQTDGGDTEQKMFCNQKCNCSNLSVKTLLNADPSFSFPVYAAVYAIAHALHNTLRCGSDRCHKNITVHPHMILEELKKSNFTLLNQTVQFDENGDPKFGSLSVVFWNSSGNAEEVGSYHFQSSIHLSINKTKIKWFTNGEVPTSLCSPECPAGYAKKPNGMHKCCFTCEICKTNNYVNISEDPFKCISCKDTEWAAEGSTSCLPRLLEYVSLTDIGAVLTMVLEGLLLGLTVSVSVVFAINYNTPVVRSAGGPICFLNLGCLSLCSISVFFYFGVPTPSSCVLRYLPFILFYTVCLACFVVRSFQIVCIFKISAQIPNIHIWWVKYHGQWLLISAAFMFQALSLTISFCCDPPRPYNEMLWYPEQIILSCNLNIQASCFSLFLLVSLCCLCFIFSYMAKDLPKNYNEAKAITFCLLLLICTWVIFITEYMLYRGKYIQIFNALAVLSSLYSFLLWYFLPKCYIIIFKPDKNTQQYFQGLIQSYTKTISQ
T1 sequence (Q2MHK2 20-853): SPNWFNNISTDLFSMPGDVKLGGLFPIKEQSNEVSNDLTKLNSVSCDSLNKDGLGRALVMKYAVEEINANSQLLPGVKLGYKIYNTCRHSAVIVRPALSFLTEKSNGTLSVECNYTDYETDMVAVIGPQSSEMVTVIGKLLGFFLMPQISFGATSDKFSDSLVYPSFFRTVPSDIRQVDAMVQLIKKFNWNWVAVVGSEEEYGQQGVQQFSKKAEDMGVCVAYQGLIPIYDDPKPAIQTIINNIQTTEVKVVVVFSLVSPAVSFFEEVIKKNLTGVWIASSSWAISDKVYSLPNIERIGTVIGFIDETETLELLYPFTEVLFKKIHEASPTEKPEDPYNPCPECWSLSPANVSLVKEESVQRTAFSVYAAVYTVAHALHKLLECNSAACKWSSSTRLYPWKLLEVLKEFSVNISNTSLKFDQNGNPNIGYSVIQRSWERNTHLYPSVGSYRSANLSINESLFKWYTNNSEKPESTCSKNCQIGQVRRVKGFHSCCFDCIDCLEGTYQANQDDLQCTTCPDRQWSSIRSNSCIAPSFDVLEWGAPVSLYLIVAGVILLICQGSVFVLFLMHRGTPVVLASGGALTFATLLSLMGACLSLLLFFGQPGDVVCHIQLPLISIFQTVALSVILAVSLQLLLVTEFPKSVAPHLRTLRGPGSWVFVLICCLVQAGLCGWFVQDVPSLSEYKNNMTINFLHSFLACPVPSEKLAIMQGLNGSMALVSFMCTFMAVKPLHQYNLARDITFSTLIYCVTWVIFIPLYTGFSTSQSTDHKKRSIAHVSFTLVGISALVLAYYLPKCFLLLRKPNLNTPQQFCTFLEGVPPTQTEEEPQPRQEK
Protocol: (§1) The buffers with lower Cl^− were prepared by progressively replacing NaCl, KCl, CaCl2 and MgCl2 in the buffer with gluconate equivalents[20]. The pH was adjusted to 7.4 with NaOH. Ligands were diluted with the assay buffers at the desired concentrations.
Measurements of the responses of the cells by cell-based assay based on the intracellular Ca^2+ mobilization were carried out as described previously with some modifications[20],[34],[46],[47]. […] The cells were seeded in 96-well plates (clear-bottomed CellBIND surface plate, Corning, Glendale, AZ, USA) coated with ε-poly-L-lysine (Cosmo Bio, Tokyo, Japan) at approximately 70,000 cells per well. After 20 h, the medium was removed and replaced with high Cl^− buffer. After 3 h 30 min incubation at 27 °C, cells were loaded with 5 µM calcium-indicator dye Fluo-8 AM (AAT Bioquest, Sunnyvale, CA, USA) diluted in high Cl^− buffer. After incubation for 30 min at 27 °C, the cells were washed with buffers containing appropriate concentrations of Cl^−. The cellular assay was initiated after 3–5 min of resting and was completed within 5 min. The measurements were made using FlexStation 3 (Molecular Devices, Sunnyvale, CA, USA) at 27 °C. Fluorescence changes (i.e., excitation at 485 nm and emission at 525 nm with a cutoff at 515 nm) were monitored at 2 s intervals. A 100-µL aliquot of assay buffer supplemented with 2 × ligands was added at 20 s, and scanning was continued for an additional 40 s. The response of each well was determined as ∆RFU (delta relative fluorescent units), which was calculated as (maximum fluorescent value)—(minimum fluorescent value). […] Such normalized data from more than three independent experiments are reported as the mean ± standard error of the mean (SEM). Dose‒response fitting curves were calculated by Prism 9 (GraphPad Software, San Diego, CA) using nonlinear regression (log(agonist) vs. response—variable slope), based on the integrated data from the several independent experiments.

[2] = system: mfT1R2b E260K/mfT1R3; format: cell-based, medaka fish; settings: 10 mM vs high Cl- buffer
Protocol: as §1
(§2) Measurements of the responses of the cells by cell-based assay based on the intracellular Ca^2+ mobilization were carried out as described previously with some modifications[20],[34],[46],[47]. […] The cells were seeded in 96-well plates (clear-bottomed CellBIND surface plate, Corning, Glendale, AZ, USA) coated with ε-poly-L-lysine (Cosmo Bio, Tokyo, Japan) at approximately 70,000 cells per well. After 20 h, the medium was removed and replaced with high Cl^− buffer. […] Fluorescence changes (i.e., excitation at 485 nm and emission at 525 nm with a cutoff at 515 nm) were monitored at 2 s intervals. […] The response of each well was determined as ∆RFU (delta relative fluorescent units), which was calculated as (maximum fluorescent value)—(minimum fluorescent value). […] Dose‒response fitting curves were calculated by Prism 9 (GraphPad Software, San Diego, CA) using nonlinear regression (log(agonist) vs. response—variable slope), based on the integrated data from the several independent experiments.

[3] = system: mfT1R2b E260A/mfT1R3; format: cell-based, medaka fish; settings: 10 mM vs high Cl- buffer
Protocol: as §1, §2

[Cl-].[Na+] [NaCl] was tested, and the “[Cl-]o at which sensitivity is clearly reduced” value ([1]; agonist L-Gln, buffers with 10-141.4 mM Cl-) was “below 80 mM” and the “[Cl-]o required for saturation of the sensitivity” value ([1]; sensitivity to L-Gln, Fig. 2A,D) was 40 to 80 mM.

With C[C@H](N)C(=O)O [L-Ala, L-alanine] the “effect of [Cl-]o on sensitivity” value [2] was “hardly affected”, the “effect of [Cl-]o on sensitivity” value [3] was “hardly affected” and the “EC50 in 10 mM Cl- buffer relative to high Cl- buffer” value ([1]; 10 mM vs 141.4 mM Cl- buffer) was about 7 times higher.
